Square brackets hold non-standard residues; d marks the D form. Peptide text beside a SMILES is read from it.

This data set is described as follows: Solubility in water or saline. In kind it is physicochemical. From the text: One of the compounds is a heptapeptide having the sequence Tyr-D-Met-Phe-His-Leu-Met-Asp-NH2 SEQ ID NO:1, hereinafter referred to as deltorphin A. Another of the compounds is a thirteen amino acid sequence Tyr-D-Ala-Phe-Gly-Tyr-Pro-Ser-Gly-Glu-Ala-Lys-Lys-Ile SEQ ID NO:2. The peptides may be produced by a number of methods, such as using an automated peptide synthesizer, through recombinant molecular techniques, or isolated from a naturally occurring source, as is known to one skilled in the art. Deltorphin A SEQ ID NO:1 has a molecular weight of 955.1 daltons, and Dermorphin H SEQ ID NO:2 has a molecular weight of about 1430.64 daltons. […] The initial alkaline pH is adjusted to 7.4 with 1 N HCl.

As to `CSCC[C@H](NC(=O)[C@H](CC(C)C)NC(=O)[C@H](Cc1cnc[nH]1)NC(=O)[C@H](Cc1ccccc1)NC(=O)[C@@H](CCSC)NC(=O)[C@@H](N)Cc1ccc(O)cc1)C(=O)N[C@@H](CC(=O)O)C(N)=O` [Deltorphin A, Tyr-D-Met-Phe-His-Leu-Met-Asp-NH2] (H-Y[dM]FHLMD-NH2), the solubility entry is “insoluble in water or saline”. In the case of `CC[C@H](C)[C@H](NC(=O)[C@H](CCCCN)NC(=O)[C@H](CCCCN)NC(=O)[C@H](C)NC(=O)[C@H](CCC(=O)O)NC(=O)CNC(=O)[C@H](CO)NC(=O)[C@@H]1CCCN1C(=O)[C@H](Cc1ccc(O)cc1)NC(=O)CNC(=O)[C@H](Cc1ccccc1)NC(=O)[C@@H](C)NC(=O)[C@@H](N)Cc1ccc(O)cc1)C(=O)O` [Dermorphin H, Tyr-D-Ala-Phe-Gly-Tyr-Pro-Ser-Gly-Glu-Ala-Lys-Lys-Ile] (H-Y[dA]FGYPSGEAKKI-OH; N-terminus and C-terminus assumed) it was “insoluble in water or saline”.

Source of the values: US7060792B2, “Protection against ischemia and reperfusion injury” (University of Kentucky Research Foundation, priority 2000, dated 2006).
